Measurements taken from patent US20260027179A1, “ANTI-SYNUCLEINOPATHY PEPTIDE AND METHODS TO TREAT NEURODEGENERATIVE DISEASES” (University of British Columbia, priority 2021, published 2026).

Columns and labels:
Iba-1 = assay: PFF mouse model of spreading synucleinopathy, microglial Iba-1 immunostaining; type: in vivo; settings: PFF-injected M83 mice, 40 mg/kg i.p. over 20 days, at three months, vs Tat-βsyn group
Procedure: M83 mice were injected intracerebrally (i.e.) into the right dorsal striatum with either 12.5 μg of α-synuclein pre-formed fibrils (PFFs) or PBS. Starting at 3 days prior to the PFF injection, mice were treated daily for 12 days with either Tat-βsyn or Tat-βsyn-degron peptide (40 mg/kg; i.p.) and once every other day for the subsequent 8 days (20 days in total, FIG. 5a). At the end of three months, coronal brain sections of the M83 mice were prepared and stained with antibodies against serine 129-phosphorylated α-synuclein (pS129syn), a marker of pathogenic synuclein aggregates, and Iba-1, a calcium-binding protein specifically expressed in macrophage and microglia as a marker of neuroinflammation.
PFFs were generated in-house based on the Volpicelli-Daley et al protocol. […] PFFs were characterized using a negative staining protocol and analyzed using an electron microscope. […] PFFs were visualized using a transmission electron microscope (FEI Tecnai 12 Bio Twin 120 kV TEM) coupled to a AMT XR80C CCD camera, and analyzed with ImageJ 1.5 and Matlab 2017b software. […]
Brains from M83 mice that received i.e. and i.p. injections were processed for immunohistochemistry. […] Coronal sections were analyzed using Fiji-ImageJ 1.5 software to detect the total area labeled with the peroxidase immunoreaction product. The results were analyzed using GraphPad Prism software.

[1] = system: β2/3 subunit of the GABAA receptor; assay: GABAA receptor β2/3 subunit level in cortical cultures, immunoblot; type: cell-based, rat; settings: 50 μM, 24 hrs
Procedure: Primary rat neuron cultures were prepared from embryos of pregnant Sprague-Dawley rats (E18). The experimental protocol was approved by the University of British Columbia Animal Care Committee. Briefly, the cortical tissue or ventral midbrain tissue was isolated into ice cold HBSS (Invitrogen, 14170-112) and then digested with 0.25% trypsin-EDTA at 37° C. for 30 min. After washing with warm DMEM (supplemented with 10% FBS) three times, neurons were suspended in neuron culture media and dissociated by trituration using varying sizes of pipettes. Neurons were then centrifuged, and the pellet was re-suspended in culture media, washed twice with culture media, and plated on the poly-D-lysine-coated plates. Neuron culture was maintained in the 37° C. incubator with 95% O2 and 5% CO2. The morning after culturing, 2/3 of the neuron culture media was replaced with fresh neuron culture media. Media was then replaced every 3-4 days. […]
Brain tissues or cultured cells were lysed on ice in the lysis buffer and then the solution was centrifuged at 14,000 rpm for 10 min at 4° C. Next, the supernatant was collected and protein concentrations were determined using a BCA protein assay kit (Thermo Scientific, 23227). […] The band density of each protein was quantified by the Bio-Rad Quantity One software and the relative optical density was analyzed relative to the loading control β-actin on the same membrane.

## YGRKKRRQRRRRTKSGVYLVGRRRG (The sequence is synthesized (YGRKKRRQRRRRTKSGVYLVGRRRG)) [Tat-βsyn-degron]
Iba-1
  Iba-1 staining in pons: significantly reduced the level of Iba-1 staining
  Iba-1 staining in substantia nigra pars compacta: no observable effect
[1]
  expression level of β2/3 subunit of the GABAA receptor: did not affect the expression levels
